These results are taken from publication PMC4965013, “Open Source Drug Discovery with the Malaria Box Compound Collection for Neglected Diseases and Beyond” (PLoS Pathogens, 2016).

One experiment has as its system S. mansoni adult worms. Kind of experiment: S. mansoni adult worms LSHTM Bickle. Type of experiment: cell-based, Schistosoma mansoni. Conditions: 15 μM. The procedure:
Columns DI-DJ, DL: Bickle group. (columns DI and DL data presented first in this paper, column DJ partially published in ref [95].). […] Male CD1 mice (aged 5–6 weeks) were bred on site using SPF conditions with access of food and water ab libitum. Worms were obtained by portal perfusion of CD1 mice (Charles River, UK) 6 weeks post-infection and 3 worm pairs added to the wells of 48 well plates (Nunc, UK) in 1 ml complete DMEM medium supplemented with 10% fetal calf serum (Gibco, UK), 2 mM L-glutamine, 100 U/ml penicillin, 100 µg/ml streptomycin (cDMEM). A primary adult worm screen was performed in which 400 MMV compounds were tested at 15 µM in 0.15% DMSO. Negative controls contained worms cultured in cDMEM alone and in cDMEM with 0.15% DMSO. Positive control wells contained worms cultured in Praziquantel (Sigma-Aldrich, UK) at 10 µM. Cultures were incubated at 37 °C and 5% CO2. Effects were assessed on day 5 of culture using an inverted microscope (Leitz Diavert Wetzlar, Germany). Any compounds producing complete immobility or ≥ 70% worm motility inhibition plus severe morphological damage were considered hits in the primary screen. […] IC50 for the compounds was calculated using Microsoft XLfit version 5.1.0.0 (2006-2008 ID Business Solutions Ltd). In vitro screening of S. mansoni schistosomula run at LSHTM (London): Schistosomula were prepared as previously reported with the modification of using a 45% and 70% Percoll gradient and the cercarial heads recovered from the 70% layer. All centrifugation steps were done at 350 xg. An appropriate volume of drug Stock was pre-added to wells in 96-well microtiter culture plates (Nunc, UK) containing 100 µl complete M169 (cM169). The wells were then topped up with another 100 µl of cM169 containing 100 schistosomula to give final concentrations of 15 µM of compound per well. Negative controls contained larvae cultured in cM169 alone and in cM169 with 0.5% DMSO. Positive control wells contained schistosomula cultured in Praziquantel (Sigma-Aldrich, UK) at 10 µM. Cultures were incubated at 37 °C and 5% CO2. Effects were assessed on day 3 of culture using an inverted microscope (Leitz Diavert Wetzlar, Germany). Any compounds producing complete immobility or ≥ 70% motility inhibition plus severe morphological damage were considered hits in the larval screen.

Experiment [1] has as its system P. falciparum 3D7 gametocytes stage IV-V. Kind of experiment: Gametocyte pLDH assay UMIL. Format: cell-based. Conditions: Plasmodium falciparum, 3D7, 72 h. The procedure:
Columns BO-BR: Taramelli group (Columns BO-BP data presented first in this paper, Columns BQ-BR are new data except as noted below). Gametocytocidal activity at UMIL. The Malaria Box compounds were used for primary screening against P. falciparum 3D7 gametocytes and subsequently for IC50 determination against Pf gametocytes obtained from the 3D7 and the 3D7elo1-pfs16-CBG99 transgenic strain [74], as previously described. The primary screening was performed on stage IV-V gametocytes from the 3D7 strain at 3.7 µM, in 96 well plates, using 100 nM epoxomicin and 1 µM DHA as positive controls and 0.5% DMSO as negative untreated control. […] The dose-response experiments were performed in 96 well plates using the 3D7 strain (pLDH, 72+72h, column BR in heat map) and the 3D7elo1-pfs16-CBG99 (luciferase assay, 72h, column BQ in heat map). Data analysis was performed as described.

In experiment [2] the test system is P. falciparum NF54 GFP-Pfs16 gametocytes stage I-III. Conditions: ref [64], cited from earlier work.
For experiment [3], the system named is Trypanosoma brucei brucei 427. Description: T. brucei brucei Scynexis. Type of experiment: cell-based.
The test system of experiment [4] is Schistosoma mansoni schistosomula (somules). Kind of experiment: S. mansoni somules phenotypic screen Caffrey.
The test system of experiment [5] is P. falciparum NF54Pfs16 gametocytes stage IV-V. Conditions: 5µM; ref [62]; cited from earlier work.
Another experiment has as its system wild type yeast cells. Kind of experiment: WT yeast (PMT assay control). Conditions: Saccharomyces cerevisiae.
For another experiment, the system named is P. falciparum 3D7 or K1. Description: Asexual Blood Stage Imaging Assay (DAPI) V. Avery. Type of experiment: cell-based. Conditions: Plasmodium falciparum; 5µM; read-out: P. falciparum 3D7 asexual blood stage % inhibition (Image).
Another experiment has as its system B. caballi (USDA). Kind of experiment: B. caballi fluorescence-based growth assay. Format: cell-based. Conditions: Babesia caballi.
Experiment [6] deals with Perkinsus marinus trophozoites. Also noted: method as in ref [96] (a number printed in a supplementary file, which may have a reference list of its own: not looked up in the article's list). Conditions: 20µM; ref [96]; cited from earlier work.
The next experiment concerns Chromera velia. Kind of experiment: Chromera velia flagellation motility assay. Conditions: 1µM.
Experiment [7] deals with Mycobacterium marinum in Acanthamoeba castellanii. Kind of experiment: A. castellanii-M. marinum infection assay. Conditions: 10µM. Format: cell-based. The procedure:
Columns FA-FC: Soldati Group (data presented first in this paper). M. marinum, D. discoideum, and Acathamoeba castellani assays. Each compound of the Malaria Box has been assayed at 10 µM in all three assays. First, the antibiotic activity was assayed directly against Mycobacterium marinum in its culture medium. Second, the toxicity and growth inhibitory effect of the compounds was assayed against the amoeba Dictyostelium discoideum in its culture medium. Finally, the “in cellulo” anti-infective activity of each compound was tested using the intracellular infection system Acanthamoeba castellanii-M. marinum. Values have been normalized using the DMSO carrier. For each assay, values have been normalized to 1.00 using the DMSO carrier, which has no detectable effect on D. discoideum nor M. marinum growth, while rifabutin was used as positive control for the antibiotic assay and the infection assay, as it abolishes M. marinum growth (normalized value under 0.10) in broth at 10 µM and intracellularly at 30 µM [150].

In a further experiment the test system is Brugia malayi. Description: Brugia malayi Scynexis. Type of experiment: cell-based. Conditions: 10µM. The procedure:
Supplement ppat.1005763.s002.xlsx, sheet "S1 Table Heat Map" | column: Brugia malayi 5d % dead at 10µM Scynexis

Experiment [8] relates to Mycobacterium tuberculosis mc26220 non-replicating. Description: microbe, parasite or virus in culture. Format: cell-based.
The subject of the next experiment is B. bovis (Texas strain). Description: B. bovis fluorescence-based growth assay. Conditions: Babesia bovis, in Bos taurus. Format: cell-based.
Experiment [9] concerns P. falciparum W2 apicoplast. Conditions: 5µM compound; ref [54]; cited from earlier work.
Setting [10] is: 3.7 µM, read-out: gametocytes 3D7, stage IV-V, pLDH, 72+72h, %inhibition.
Setting [11] is: 3.7µM, read-out: gametocytes 3D7, stage IV-V, pLDH, 72h, %inhibition.
The mark [12] stands for this setting: read-out: % Inhibition in WT yeast (PMT assay control), no added choline.
[13] abbreviates: read-out: % Inhibition in WT yeast (PMT assay control), with added choline.

Molecules are shown by their SMILES. Like-named read-outs stand apart in the source and are kept apart here.

For `COc1cc2cc(C(=O)Nc3ccccc3)c(N)nc2cc1OC` [MMV006767], the “Schistosoma mansoni adult worm primary assay % Motility Reduction (Hit ≥ 70%)” value in the experiment with S. mansoni adult worms amounted to 0%. Moreover, the inhibition at 3.7 µM in experiment [1] (setting [10]) was determined as 2.43%; in experiment [1] (setting [11]), 10%. Besides, the “gametocyte early stage (I-III) GFP-MTR % inhibition” value is on record as 17% in [2] (0.5µM) and 99% in [2] (5µM). For the same compound, the values for the inhibition at 5 µM (in experiment [3]; in the experiment on P. falciparum 3D7 or K1) were -54% and 99%, respectively. For the same compound, the “S. mansoni newly transformed schistosomula, visual tox scale, 0 = none, 4=most damaged” value in experiment [4] (24 h at 2.5µM) is reported as 0; in experiment [4] (72 h at 2.5µM), 2. In addition, in experiment [5], the “gametocyte late stage (IV-V) luciferase % inhibition” value is recorded as 2%. In addition, the inhibition at 100 µM in the experiment with wild type yeast cells (setting [12]) and in the experiment on wild type yeast cells (setting [13]) was 0% throughout. Besides, the EC50 in the experiment on B. caballi (USDA) is 6.22 µM; in the experiment on B. bovis (Texas strain), 0.86 µM. For the same compound, the “Perkinsus marinus % growth” value in experiment [6] is 44%. For the same compound, the “Chromera velia 24 hr Flagellation (control standardized to ++; 0 = no flagella)” value in the experiment with Chromera velia is “+++”. The “Chromera velia 72 hr Flagellation (control standardized to ++; 0 = no flagella)” value with Chromera velia is “++”. The “Mycobacterium marinum growth in Acanthamoeba castellanii DMSO=1 Infection Assay” value (“Mycobacterium marinum growth” below) in experiment [7] is on record as 1.18. Moreover, in the experiment on Brugia malayi, the “Brugia malayi 5d % dead” value is reported as 18%. Further, the inhibition at 25 µM in [8] was determined as 1.39%.
On to `CCN1CCN(c2cc(C)c3cc(NC(=O)c4ccc(OC)c(OC)c4)ccc3n2)CC1` [MMV019074], for which the “Schistosoma mansoni adult worm primary assay % Motility Reduction (Hit ≥ 70%)” value in the experiment with S. mansoni adult worms was found to be 25%. Further, the inhibition at 3.7 µM in [1] (setting [10]) was determined as 13%; in experiment [1] (setting [11]) it was 10%. Moreover, the entries for the “gametocyte early stage (I-III) GFP-MTR % inhibition” value in [2] (0.5µM) and in experiment [2] (5µM) were 11% and 14%, respectively. In addition, the figures for the inhibition at 5 µM (in experiment [3]; in the experiment with P. falciparum 3D7 or K1) were 45% and 99%, respectively. Besides, the entries for the “S. mansoni newly transformed schistosomula, visual tox scale, 0 = none, 4=most damaged” value in [4] (24 h at 2.5µM) and in experiment [4] (72 h at 2.5µM) were 1 and 0, respectively. In addition, in experiment [5], the “gametocyte late stage (IV-V) luciferase % inhibition” value is given as -9%. In addition, the inhibition at 100 µM with wild type yeast cells (setting [12]) and in the experiment on wild type yeast cells (setting [13]) was 0% throughout. The EC50 in the experiment on B. caballi (USDA) was 5.93 µM; in the experiment with B. bovis (Texas strain), 6.69 µM. In addition, the “Perkinsus marinus % growth” value in experiment [6] is listed as 92%. In the experiment with Chromera velia, the “Chromera velia 24 hr Flagellation (control standardized to ++; 0 = no flagella)” value was “+++”. Besides, the “Chromera velia 72 hr Flagellation (control standardized to ++; 0 = no flagella)” value in the experiment on Chromera velia is on record as “+++”. For the same compound, in [7], the “Mycobacterium marinum growth” value was 0.93. Besides, the “Brugia malayi 5d % dead” value with Brugia malayi is given as -2%. Moreover, the inhibition at 25 µM in [8] amounted to 13%.
On to `COc1ccc(C(=O)Nc2ccc3nc(N4CCCCC4)cc(C)c3c2)cc1OC` [MMV019758], for which, in the experiment with S. mansoni adult worms, the “Schistosoma mansoni adult worm primary assay % Motility Reduction (Hit ≥ 70%)” value came out at 50%. Also, the inhibition at 3.7 µM in experiment [1] (setting [10]) was found to be 11%; in experiment [1] (setting [11]), 12%. For the same compound, the entries for the “gametocyte early stage (I-III) GFP-MTR % inhibition” value in experiment [2] (0.5µM) and in experiment [2] (5µM) were -8% and 8%, respectively. Also, the inhibition at 5 µM in experiment [3] was -11%; in the experiment on P. falciparum 3D7 or K1, 76%. Moreover, the “S. mansoni newly transformed schistosomula, visual tox scale, 0 = none, 4=most damaged” value in experiment [4] (24 h at 2.5µM) and in [4] (72 h at 2.5µM) was 0 throughout. The inhibition at 100 µM in the experiment on wild type yeast cells (setting [12]) and with wild type yeast cells (setting [13]) was 0% in each case. Also, the EC50 with B. caballi (USDA) came out at 0.51 µM; with B. bovis (Texas strain) it was 14.3 µM. Further, the “Perkinsus marinus % growth” value in experiment [6] is reported as 101%. In addition, in the experiment on Chromera velia, the “Chromera velia 24 hr Flagellation (control standardized to ++; 0 = no flagella)” value is listed as “+”. Moreover, the “Chromera velia 72 hr Flagellation (control standardized to ++; 0 = no flagella)” value with Chromera velia was “++”. Besides, in [9], the “P. falciparum (W2) asexual growth: ratio w & wout 200µM IPP” value was 0.79. For the same compound, the “Mycobacterium marinum growth” value in experiment [7] worked out at 1.23. Further, in the experiment on Brugia malayi, the “Brugia malayi 5d % dead” value worked out at 9%. In addition, the inhibition at 25 µM in experiment [8] is 24%.
